Assay [1] deals with T1, Mouse SSAO/VAP-1 (Mus musculus, UniProt O70423).
T1 construct: from tissue; host or cells: internal adipose tissue membranes of Swiss mice
T1 sequence (O70423 1-765): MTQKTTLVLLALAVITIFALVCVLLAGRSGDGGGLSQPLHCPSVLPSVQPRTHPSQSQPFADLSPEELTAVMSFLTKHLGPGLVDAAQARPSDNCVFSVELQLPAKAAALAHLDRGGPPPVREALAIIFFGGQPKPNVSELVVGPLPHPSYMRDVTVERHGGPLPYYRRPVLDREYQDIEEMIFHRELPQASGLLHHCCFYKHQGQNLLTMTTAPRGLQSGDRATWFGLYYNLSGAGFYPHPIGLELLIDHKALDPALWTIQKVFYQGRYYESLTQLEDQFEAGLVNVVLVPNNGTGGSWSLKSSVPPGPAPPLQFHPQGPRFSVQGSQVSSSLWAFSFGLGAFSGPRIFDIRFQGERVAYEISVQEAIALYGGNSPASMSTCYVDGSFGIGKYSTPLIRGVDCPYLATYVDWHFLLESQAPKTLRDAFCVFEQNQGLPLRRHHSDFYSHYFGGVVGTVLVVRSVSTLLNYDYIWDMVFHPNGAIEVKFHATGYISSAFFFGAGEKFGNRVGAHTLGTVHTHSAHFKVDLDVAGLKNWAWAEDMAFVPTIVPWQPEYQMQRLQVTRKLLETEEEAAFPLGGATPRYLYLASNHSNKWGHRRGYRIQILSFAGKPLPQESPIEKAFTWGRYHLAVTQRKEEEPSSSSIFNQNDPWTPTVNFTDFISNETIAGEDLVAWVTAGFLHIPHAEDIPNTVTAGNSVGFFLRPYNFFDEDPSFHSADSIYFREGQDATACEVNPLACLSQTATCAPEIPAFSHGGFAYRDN
Kind of assay: Fluorimetric detection of SSAO-mediated H2O2 formation (Amplex Red), mouse adipose tissue membranes. The class given is biochemical. Particulars: production of hydrogen peroxide; compounds at 100 μM. Here is the method:
Internal adipose tissue was obtained from Swiss mice weighing between 20 to […]. […] The lysates were then centrifuged at 5000 g at 4° C. for 15 min to eliminate the fat cake and non-homogenized material, and supernatants were collected and centrifuged at 200000 g for 2 h at 4° C. Pelleted membranes were resuspended in 30 mmol/l HEPES and stored at −80° C. until use. Protein concentrations were measured by the Bradford method with γ-globulin as standard.
(§1) The SSAO activity of human recombinant VAP-1 (0.1 μg prot/assay) and mouse adipose tissue membranes (1 μg prot/assay) was measured using Amplex Red Reagent, a highly sensitive and stable probe for H2O2. The reaction was performed in 200 μL of 0.2 mol/l phosphate buffer at pH 7.4 for 50 min at 37° C. in black non-phosphorescent microplates (Nunc). Catalytic reaction was initiated by the addition of the amines indicated as putative SSAO substrates and H2O2-detecting mixture containing horseradish peroxidase and Amplex Red, as previously described. Fluorescence intensity was measured (excitation, 545 nm, 590 nm, Bio-Tek fluorescence plate reader) and H2O2 concentration was calculated form calibration curves generated by serial dilutions of standard H2O2. Fluorescence readings were performed every 5 min. […] To test amines as putative SSAO inhibitors, they were pre-incubated for 20 min with semicarbazide, and their percentage of inhibition was calculated by referring to SSAO activity produced by benzylamine. The kinetic parameters Km and Vmax were calculated using appropriate non-linear curve-fitting formula based on the Michaelis-Menten equation and using GraphPad Prism 4.0 software.

The target in assay [2] is T2, Human SSAO/VAP-1 (Homo sapiens, UniProt Q16853).
T2 sequence (Q16853 1-763): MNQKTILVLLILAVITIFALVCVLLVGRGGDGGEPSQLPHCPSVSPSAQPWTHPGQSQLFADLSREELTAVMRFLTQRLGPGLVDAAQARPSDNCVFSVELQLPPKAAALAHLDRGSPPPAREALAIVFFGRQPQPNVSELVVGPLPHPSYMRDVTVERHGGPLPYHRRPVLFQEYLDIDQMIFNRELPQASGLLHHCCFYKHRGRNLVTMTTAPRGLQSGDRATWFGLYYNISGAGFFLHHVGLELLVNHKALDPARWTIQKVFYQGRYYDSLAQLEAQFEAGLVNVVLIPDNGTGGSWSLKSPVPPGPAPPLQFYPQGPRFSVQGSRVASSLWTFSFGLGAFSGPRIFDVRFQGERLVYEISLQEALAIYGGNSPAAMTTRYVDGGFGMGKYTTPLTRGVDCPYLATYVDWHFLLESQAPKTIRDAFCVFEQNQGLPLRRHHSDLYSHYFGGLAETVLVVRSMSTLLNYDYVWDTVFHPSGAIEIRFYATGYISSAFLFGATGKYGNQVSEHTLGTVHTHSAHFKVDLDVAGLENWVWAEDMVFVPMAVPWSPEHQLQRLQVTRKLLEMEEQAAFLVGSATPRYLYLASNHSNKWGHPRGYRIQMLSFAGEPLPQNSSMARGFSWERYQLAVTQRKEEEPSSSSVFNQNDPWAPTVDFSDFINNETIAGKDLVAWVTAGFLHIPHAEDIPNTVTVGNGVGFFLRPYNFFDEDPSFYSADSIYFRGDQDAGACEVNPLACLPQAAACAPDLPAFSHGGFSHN
As to the kind of experiment: Fluorimetric detection of SSAO-mediated H2O2 formation (Amplex Red), human recombinant VAP-1. The format is biochemical. Particulars: production of hydrogen peroxide; compounds at 1 mM. The protocol:
as §1

Assay [3] has as its system isolated rat adipocytes. As to the kind of experiment: Glucose (2-deoxyglucose) transport in isolated rat adipocytes. The following applies: for stimulation of glucose transport (2-DG uptake), in words: 45 min incubation; for effect of semicarbazide on the stimulation of glucose transport: 1 mM semicarbazide. The format is cell-based, Wistar rats. Here is the method:
FIG. 1 is a graphical illustration of the hexaquis(benzylammonium) decavanadate effects on glucose transport in isolated rat adipocytes. In this Figure, V corresponds to the rate of 2-deoxyglucose transport (expressed relative to the basal rate), and the results are mean +standard error of the mean (SEM). The adipocytes were incubated in the absence of stimulants in the following conditions: basal (1); in the presence of 100 nM insulin (2); in the presence of hexaquis(benzylammonium) decavanadate at concentrations of 0.5 μM (3), 1 μM (4), 2.5 μM (5), 5 μM (6), 10 μM (7), 25 μM (8), 50 μM (9), and 100 μM (10). The cells were also incubated in the presence of the semicarbazide inhibitor (1 mM), and 10 μM hexaquis(benzylammonium) decavanadate (11), 25 μM of hexaquis(benzylammonium) decavanadate (12) or 50 μM hexaquis(benzylammonium) decavanadate (13). In parallel, the cells were incubated in presence of 100 μM of sodium vanadate and 100 μM of benzylamine, in the absence (14) or in the presence of 1 mM of semicarbazide (15).
FIG. 2 is a graphical illustration of the effects of hexaquis(benzylammonium) decavanadate, pentaquis(benzylammonium) decavanadate and tetraquis(benzylammonium) decavanadate on glucose transport in isolated rat adipocytes. V corresponds to the rate of 2-deoxyglucose uptake (expressed as relation with basal group), and the results are mean +standard error mean. The adipocytes were incubated in the absence of stimulants in the following conditions: basal (1); in the presence of 100 nM of insulin (2); in the presence of hexaquis(benzylammonium) decavanadate at concentrations of 10 μM (3) and 25 μM (4), pentaquis(benzylammonium) decavanadate at concentrations of 10 μM (8) and 25 μM (9), and tetraquis(benzylammonium) decavanadate at concentrations of 10 μM (11) and 25 μM (12). The cells were also incubated in the presence of the semicarbazide inhibitor (1 mM) and, 25 μM of hexaquis(benzylammonium) decavanadate (5), 25 μM of pentaquis(benzylammonium) decavanadate (10) or 25 μM of tetraquis(benzylammonium) decavanadate (13). In parallel, the cells were incubated in the presence of 100 μM of sodium vanadate (6) or in the presence of 250 μM of sodium vanadate (7).
Adipose cells from Wistar rats were incubated for 45 minutes in basal conditions (Basal) or in the presence of 100 nM insulin (Ins) and different concentrations of. hexaquis(benzylammonium) decavanadate (B6V10) in the absence or in the presence of 1 mM semicarbazide (SCZ). Subsequently, 2-DG transport was measured over a 5 min. interval.
The effects of the three tested compounds (B6V10, B5V10 and B4V10) were compared. Adipose cells from Wistar rats were incubated for 45 minutes in basal conditions (Basal) or in the presence of 100 nM insulin (Ins), and different concentrations of decavanadate (V10), hexaquis(benzylammonium) decavanadate (B6V10), pentaquis(benzylammonium) decavanadate (B5V10) or tetraquis(benzylammonium) decavanadate (B4V10) in the absence or in the presence of 1 mM semicarbazide (SCZ). 2-DG transport was measured over 5 min. intervals.
In additional experiments, compounds shown in FIG. 6A, 2-(4-fluoro-phenyl)ethylamine (compound A), 3-phenylpropylamine (compound B), 4-fluoro-benzylamine (compound C) and 4-phenylbutylamine (compound D) were assessed using the experimental methods set forth above for the capacity to stimulate 2-DG uptake in isolated rat adipocytes. Adipose cells from Wistar rats were incubated for 45 minutes in basal conditions (Basal) or in the presence of 100 nM insulin (Ins), and different concentrations of vanadium salts of 2-(4-fluoro-phenyl)-ethylamine (compound A), 3-phenyl-propylamine (compound B), 4-fluoro-benzylamine (compound C) and 4-phenyl-butylamine (compound D). 2-DG transport was measured over 5 min.
The effects of incubation with semicarbazide or phosphatidylinositol 3-kinase inhibitors were also investigated. […]

Take `C=CCOC(=O)NCc1cccc(CN)c1` [Example 5, allyl 3-(aminomethyl)benzylcarbamate]: the “Mouse SSAO/VAP-1 activity % relative to benzylamine” value in assay [1] amounted to 49 ± 3%. Besides, in assay [2], the “Human SSAO/VAP-1 activity % relative to benzylamine” value stood at 21 ± 1%. For the molecule `Cc1ccc(S(=O)(=O)NCc2cccc(CN)c2)cc1` [Example 8, N-(3-(aminomethyl)benzyl)-4-methylbenzenesulfonamide], the “Mouse SSAO/VAP-1 activity % relative to benzylamine” value in assay [1] is 14 ± 3%. For the same molecule, the “Human SSAO/VAP-1 activity % relative to benzylamine” value in assay [2] is 12 ± 2%. `NCc1cccc(CNC(=O)c2ccc(Br)cc2)c1` [Example 12, N-(3-(aminomethyl)benzyl)-4-bromobenzamide]: the “Mouse SSAO/VAP-1 activity % relative to benzylamine” value in assay [1] was 46 ± 1%. Also, the “Human SSAO/VAP-1 activity % relative to benzylamine” value in assay [2] was determined as 16 ± 2%.

Turning to `NCc1ccc(C(=O)NCc2cccc(CN)c2)cc1` [Example 11, 4-(aminomethyl)-N-(3-(aminomethyl)benzyl)benzamide], in assay [1], the “Mouse SSAO/VAP-1 activity % relative to benzylamine” value turned out to be 12 ± 1%. For the same molecule, the “Human SSAO/VAP-1 activity % relative to benzylamine” value in assay [2] came out at 17 ± 2%. As for `CC(=O)N[C@H](C(=O)NCc1cccc(CN)c1)c1ccccc1` [Example 7, (S)-2-acetamido-N-(3-(aminomethyl)benzyl)-2-phenylacetamide], in assay [1], the “Mouse SSAO/VAP-1 activity % relative to benzylamine” value is given as 13 ± 3%. Also, the “Human SSAO/VAP-1 activity % relative to benzylamine” value in assay [2] is 2 ± 1%.

For `NCCCCc1ccccc1` [compound D, 4-phenylbutylamine], the “stimulation of glucose transport (2-DG uptake), in words” value (“stimulation … in words” below) in assay [3] was “markedly stimulated glucose transport”. In the case of `NCc1cccc(CNC(=O)c2ccccc2)c1` [Example 6, N-(3-(aminomethyl)benzyl)benzamide], in assay [1], the “Mouse SSAO/VAP-1 activity % relative to benzylamine” value is reported as 58 ± 4%. Further, in assay [2], the “Human SSAO/VAP-1 activity % relative to benzylamine” value stood at 17 ± 1%. Take `NCc1cccc(CNC(=O)CI)c1` [Example 4, N-(3-(aminomethyl)benzyl)-2-iodoacetamide]: the “Mouse SSAO/VAP-1 activity % relative to benzylamine” value in assay [1] was 61 ± 5%. Moreover, the “Human SSAO/VAP-1 activity % relative to benzylamine” value in assay [2] is reported as 38 ± 3%. For `NCc1ccccc1` [Example 1, benzylamine, reference compound], in that order: 100% and 100%. For the molecule `CCC(=O)NCc1cccc(CN)c1` [Example 3, N-(3-(aminomethyl)benzyl)propionamide], the “Mouse SSAO/VAP-1 activity % relative to benzylamine” value in assay [1] is given as 27 ± 1%. Besides, the “Human SSAO/VAP-1 activity % relative to benzylamine” value in assay [2] is reported as 4 ± 1%. On to “tetraquis(benzylammonium) decavanadate [Example B4V10]”, for which the entries for the “effect of semicarbazide on the stimulation of glucose transport” value (“effect of semicarbazide” for short) in assay [3] and in assay [3] (listed as tetraquis(benzylammonium) decavanadate) were “blocked in the presence of semicarbazide” and “this effect was inhibited”, respectively. Moreover, in assay [3], the “stimulation … in words” value is reported as “pronounced stimulation on glucose transport”. Consider “pentaquis(benzylammonium) decavanadate [Example B5V10]”, for which, in assay [3], the “effect of semicarbazide” value is reported as “blocked in the presence of semicarbazide” and the “stimulation … in words” value is recorded as “pronounced stimulation on glucose transport”. Further, in assay [3] (listed as pentaquis(benzylammonium) decavanadate), the “effect of semicarbazide” value was “this effect was inhibited”.

`CC(=O)NCc1cccc(CN)c1` [Example 2, N-(3-(aminomethyl)benzyl)acetamide]: the “Mouse SSAO/VAP-1 activity % relative to benzylamine” value in assay [1] came out at 16 ± 4%. Further, in assay [2], the “Human SSAO/VAP-1 activity % relative to benzylamine” value is 3 ± 1%.

With `NCCCc1ccccc1` [compound B, 3-phenylpropylamine], the “stimulation … in words” value in assay [3] is reported as “markedly stimulated glucose transport”. In the case of `NCc1ccc(F)cc1` [compound C, 4-fluoro-benzylamine], the “stimulation … in words” value in assay [3] is listed as “markedly stimulated glucose transport”.

With `NCCc1ccc(F)cc1` [compound A, 2-(4-fluoro-phenyl)ethylamine], the “stimulation … in words” value in assay [3] was “markedly stimulated glucose transport”.

For the origin of these results see patent US20080070987A1, “META-XYLYLENEDIAMINE VANADATE SALTS” (priority 2006, published 2008).
